Experimental data reported in patent publication US9023789B2, “Amylin analogs and pharmaceutical compositions thereof” (Novo Nordisk A/S, priority 2012, dated 2015).
≈ marks a conversion by molar mass, not a printed value. Like-named read-outs stand apart in the source and are kept apart here. Numbered stars: 1 amine (or outer) side, 2 acyl side, 3 side chain; on linkers, the order of the positions; unused ones are H or OH. Bridge positions count the residues as written; N and C are the ends. Side chains are listed from the residue outwards. Peptide text beside a SMILES is read from it. * marks the point of attachment. C20 diacid = O=C(O)CCCCCCCCCCCCCCCCCCC(=O)*; γGlu = O=C(O)[C@H](CCC(=O)[*:2])N[*:1]; AEEA = NCCOCCOCC(=O)O

Experiments:
rat calcitonin receptor = target: T1, rat calcitonin receptor (Rattus norvegicus, UniProt P32214); experiment: ASSAY (VIII) binding to the rat calcitonin receptor; conditions: Table 7, read-out: rCTR bind IC50
T1 construct: expressed in transfected cells; host or cells: BHK tk'ts 13 (transient, FuGENE 6), membranes
T1 sequence (P32214 25-479 isoform P32214-2 limits assumed): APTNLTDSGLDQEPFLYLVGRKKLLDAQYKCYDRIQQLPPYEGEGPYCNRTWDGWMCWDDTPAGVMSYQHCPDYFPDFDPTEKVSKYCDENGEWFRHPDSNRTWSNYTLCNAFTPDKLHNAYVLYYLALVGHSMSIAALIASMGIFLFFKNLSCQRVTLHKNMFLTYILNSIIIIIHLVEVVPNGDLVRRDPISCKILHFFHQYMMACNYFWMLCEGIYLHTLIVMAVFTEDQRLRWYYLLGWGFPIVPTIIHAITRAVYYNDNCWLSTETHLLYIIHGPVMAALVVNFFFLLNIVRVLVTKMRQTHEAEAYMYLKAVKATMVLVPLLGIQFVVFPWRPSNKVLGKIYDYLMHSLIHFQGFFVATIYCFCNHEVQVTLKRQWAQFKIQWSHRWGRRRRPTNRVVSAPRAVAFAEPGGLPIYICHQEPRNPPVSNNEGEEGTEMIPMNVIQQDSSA
In short: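 Cell membranes for binding came from BHK tk′ts 13 cells harvested approximately 48 hours after transient transfection with the rat receptor.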

[1] = target: T2, rat amylin receptor (rat calcitonin receptor + rat RAMP 3) (Rattus norvegicus, UniProt P32214+Q9JJ73); experiment: ASSAY (VI) binding to the rat amylin receptor; conditions: for IC50: binding to rat amylin receptor, read-out: rAmylin-R bind IC50
T2 construct: expressed in transfected cells; host or cells: BHK tk'ts 13 (transient, FuGENE 6), membranes
T2 sequence (P32214 25-479 isoform P32214-2 limits assumed): T1 sequence (P32214 25-479 isoform P32214-2 limits assumed)
T2 sequence (Q9JJ73 23-147 partner): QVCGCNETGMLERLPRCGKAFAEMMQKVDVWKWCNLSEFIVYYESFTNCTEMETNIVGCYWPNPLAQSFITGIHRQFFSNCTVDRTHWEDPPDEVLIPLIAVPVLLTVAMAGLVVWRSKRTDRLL
In short: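 Membranes for this rat amylin receptor binding assay came from BHK tk′ts 13 cells. The cells were transiently transfected with rat calcitonin receptor using the FuGENE® 6 reagent from Roche, as the manufacturer recommends. The cells were collected approximately 48 hours after transfection, and membranes were then prepared.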

[2] = ASSAY (IV) determination of solubility; format: physicochemical
In short: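 Samples of polypeptide, prepared from a water stock at […] and diluted 1:1 into 100 mM buffers spanning pH 3.0 to 8.0, stood 18 hours at room temperature. Polypeptide concentration was then determined by UPLC following centrifugation.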

[3] = target: T3, human amylin 3(a) receptor (human calcitonin receptor + RAMP-3) in BHK570 cells (Homo sapiens, UniProt O60896+P30988); experiment: ASSAY (II)a functional assay, human amylin receptor (CRE luciferase); format: cell-based; conditions: for EC50: human amylin receptor functional potency, assay (II), read-out: hAmylin-R funct. EC50
T3 construct: expressed in transfected cells
In short: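 Readout is luminescence from a cAMP-responsive CRE-luc reporter, developed with LucLite for 30 min at room temperature. Cells were treated for 3 h at 37 °C in 10% FBS/DMEM buffered with 10 mM Hepes (pH 7.4).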

[4] = target: T4, human amylin receptor (membranes from Amylin 3(a)/CRE-luc cells) (Homo sapiens, UniProt O60896+P30988); experiment: ASSAY (V) binding to the human amylin receptor (SPA, 125I-rat amylin); conditions: for IC50: Table 4, read-out: hAmylin-R bind IC50;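 as to all read-outs here: competition binding of cell membranes (35 ng/µL) mixed with SPA beads in 384-well plates at 40 µL total volume, read by scintillation counting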
T4 construct: expressed in transfected cells
T4 sequence (P30988 25-474): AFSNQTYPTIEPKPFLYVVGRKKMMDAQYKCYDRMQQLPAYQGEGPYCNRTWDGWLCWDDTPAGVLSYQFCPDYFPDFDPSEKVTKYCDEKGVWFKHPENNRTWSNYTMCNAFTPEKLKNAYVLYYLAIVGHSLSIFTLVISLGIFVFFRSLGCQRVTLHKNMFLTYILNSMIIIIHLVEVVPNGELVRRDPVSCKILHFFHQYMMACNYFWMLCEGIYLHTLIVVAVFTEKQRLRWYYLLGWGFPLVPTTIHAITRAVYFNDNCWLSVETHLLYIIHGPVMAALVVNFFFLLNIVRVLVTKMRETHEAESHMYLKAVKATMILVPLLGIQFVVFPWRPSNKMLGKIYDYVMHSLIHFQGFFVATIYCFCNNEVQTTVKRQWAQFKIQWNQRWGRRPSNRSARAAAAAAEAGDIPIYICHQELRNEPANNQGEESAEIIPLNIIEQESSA
T4 sequence (O60896 24-148 partner): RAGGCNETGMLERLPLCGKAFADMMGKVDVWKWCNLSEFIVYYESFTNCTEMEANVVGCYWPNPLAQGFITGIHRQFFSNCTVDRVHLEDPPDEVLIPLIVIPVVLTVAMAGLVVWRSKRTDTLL

[5] = Table 7, rat binding selectivity, rCTR IC50 / rAmylin-R IC50
[6] = Table 7a (preferred compounds), rat binding selectivity, rCTR IC50 / rAmylin-R IC50
[7] = ratio of rCTR bind IC50 to rAmylin-R bind IC50
[8] = bistrispropane buffer, pH 6.5, read-out: Solubility pH 6.5 Concentration
[9] = bistrispropane buffer, pH 7.5, read-out: Solubility pH 7.5 Concentration
[10] = bistrispropane buffer, pH 6.0, read-out: Solubility pH 6.0 Concentration
[11] = bistrispropane buffer, pH 7.0, read-out: Solubility pH 7.0 Concentration
[12] = bistrispropane buffer, pH 8.0, read-out: Solubility pH 8.0 Concentration
[13] = glycylglycine buffer, pH 3.0, read-out: Solubility pH 3.0 Concentration
[14] = glycylglycine buffer, pH 4.0, read-out: Solubility pH 4.0 Concentration
[15] = glycylglycine buffer, pH 5.0, read-out: Solubility pH 5.0 Concentration
[16] = hCTR funct. EC50 divided by hAmylin-R funct. EC50
[17] = hCTR funct. EC50 over hAmylin-R funct. EC50
[18] = human functional selectivity: hCTR funct. EC50 / hAmylin-R funct. EC50
[19] = Table 5, selectivity, hCTR bind IC50 / hAmylin-R bind IC50
[20] = Table 5a, selectivity, hCTR bind IC50 / hAmylin-R bind IC50
[21] = Table 5b, selectivity, hCTR bind IC50 / hAmylin-R bind IC50
[22] = Table 5c, selectivity, hCTR bind IC50 / hAmylin-R bind IC50
[23] = Table 7, human binding selectivity, included for comparison
[24] = Table 7a (preferred compounds), human binding selectivity, included for comparison
[25] = ratio of human calcitonin receptor binding IC50 to human amylin receptor binding IC50

Structure (SMILES) | IC50 (rat calcitonin receptor) [pM] | IC50 ([1]; Table 7) [pM] | Ratio rCT/rAmylin binding [1, 5] | Ratio rCT/rAmylin binding [1, 6] | Ratio rCT/rAmylin binding [1, 7] | solubility at 18 h [2, 8] [µM] | solubility at 18 h [2, 9] [µM] | solubility at 18 h [2, 10] [µM] | solubility at 18 h [2, 11] [µM] | solubility at 18 h [2, 12] [µM] | solubility at 18 h [2, 13] [µM] | solubility at 18 h [2, 14] [µM] | solubility at 18 h [2, 15] [µM] | Ratio hCT/hAmylin funct. [3, 16] | Ratio hCT/hAmylin funct. [3, 18] | Ratio hCT/hAmylin binding [4, 19] | Ratio hCT/hAmylin binding [4, 20] | Ratio hCT/hAmylin binding [4, 21] | Ratio hCT/hAmylin binding [4, 22] | Ratio hCT/hAmylin binding [4, 23] | also measured
CC[C@H](C)[C@H](NC(=O)[C@H](C)NC(=O)CNC(=O)[C@H](Cc1ccccc1)NC(=O)[C@H](CC(N)=O)NC(=O)[C@@H]1CCCN1C(=O)[C@H](CO)NC(=O)[C@H](CO)NC(=O)[C@H](Cc1c[nH]cn1)NC(=O)[C@H](CCCNC(=N)N)NC(=O)[C@H](CC(C)C)NC(=O)[C@H](Cc1ccccc1)NC(=O)[C@H](CC(N)=O)NC(=O)[C@H](C)NC(=O)[C@H](CC(C)C)NC(=O)[C@H](CCCNC(=N)N)NC(=O)[C@H](CCC(N)=O)NC(=O)[C@@H](NC(=O)[C@H](C)NC(=O)[C@@H]1CSSC[C@H](NC(=O)[C@@H](N)CCCCNC(=O)COCCOCCNC(=O)CC[C@H](NC(=O)CCCCCCCCCCCCCCCCCCC(=O)O)C(=O)O)C(=O)N[C@@H](CC(N)=O)C(=O)N[C@@H]([C@@H](C)O)C(=O)N[C@@H](C)C(=O)N[C@@H]([C@@H](C)O)C(=O)N1)[C@@H](C)O)C(=O)N1CCC[C@H]1C(=O)N1CCC[C@H]1C(=O)N[C@@H](CO)C(=O)N[C@H](C(=O)N[C@@H](CC(N)=O)C(=O)N[C@H](C(=O)NCC(=O)N1CCC[C@H]1C(=O)N[C@@H](CC(N)=O)C(=O)N[C@H](C(=O)N[C@@H](Cc1ccc(O)cc1)C(N)=O)[C@@H](C)O)C(C)C)[C@@H](C)O [Example 55] (H-K([AEEA-γGlu-C20 diacid])CNTATCATQRLANFLRHSSPNFGAIPPSTNVGPNTY-NH2; disulfide 2-7; N-terminus assumed) | 6250 | 81 | 77.2 | 77.2 | 77.2 | ≥ 200 | ≥ 200 | ≥ 200 | ≥ 200 | 119 (≈ 541 µg/mL) | ≥ 200 | ≥ 200 | ≥ 200 | 10.8 | 10.8 | 51.8 | 51.8 | 51.8 | 51.8 | 51.8 | Ratio hCT/hAmylin funct. [3, 17]: 10.8; EC50 [3]: 68 pM; IC50 [4]: 42 pM; Ratio hCT/hAmylin binding [4, 24]: 51.8; Ratio hCT/hAmylin binding [4, 25]: 51.8
CC[C@H](C)[C@H](NC(=O)[C@H](C)NC(=O)CNC(=O)[C@H](Cc1ccccc1)NC(=O)[C@H](CC(N)=O)NC(=O)[C@@H]1CCCN1C(=O)[C@H](CO)NC(=O)[C@H](CO)NC(=O)[C@H](Cc1c[nH]cn1)NC(=O)[C@H](CCCNC(=N)N)NC(=O)[C@H](CC(C)C)NC(=O)[C@H](Cc1ccccc1)NC(=O)[C@H](CC(N)=O)NC(=O)[C@H](C)NC(=O)[C@H](CC(C)C)NC(=O)[C@H](CCCNC(=N)N)NC(=O)[C@H](CCC(N)=O)NC(=O)[C@@H](NC(=O)[C@H](C)NC(=O)[C@@H]1CSSC[C@H](NC(=O)[C@@H](N)CCCCNC(=O)COCCOCCNC(=O)CCCCCCCCCCCCCCCCCCC(=O)O)C(=O)N[C@@H](CC(N)=O)C(=O)N[C@@H]([C@@H](C)O)C(=O)N[C@@H](C)C(=O)N[C@@H]([C@@H](C)O)C(=O)N1)[C@@H](C)O)C(=O)N1CCC[C@H]1C(=O)N[C@@H](CO)C(=O)N[C@@H](CO)C(=O)N[C@H](C(=O)N[C@@H](CC(N)=O)C(=O)N[C@H](C(=O)NCC(=O)N[C@@H](CO)C(=O)N[C@@H](CC(N)=O)C(=O)N[C@H](C(=O)N[C@@H](Cc1ccc(O)cc1)C(N)=O)[C@@H](C)O)C(C)C)[C@@H](C)O [Example 43] | 7600 | 110 | 69.1 | 69.1 | 69.1 | ≥ 200 | ≥ 200 | ≥ 200 | ≥ 200 | ≥ 200 | ≥ 200 | ≥ 200 | ≥ 200 | 6.5 | 6.5 | 34.7 | 34.7 | 34.7 | 34.7 | 34.7 | EC50 [3]: 141 pM; IC50 [4]: 76 pM; Ratio hCT/hAmylin binding [4, 24]: 34.7; Ratio hCT/hAmylin binding [4, 25]: 34.7
CC[C@H](C)[C@H](NC(=O)[C@H](C)NC(=O)CNC(=O)[C@H](Cc1ccccc1)NC(=O)[C@H](CC(N)=O)NC(=O)[C@@H]1CCCN1C(=O)[C@H](CO)NC(=O)[C@H](CO)NC(=O)[C@H](Cc1c[nH]cn1)NC(=O)[C@H](CCCNC(=N)N)NC(=O)[C@H](CC(C)C)NC(=O)[C@H](Cc1ccccc1)NC(=O)[C@H](CCCNC(=N)N)NC(=O)[C@H](C)NC(=O)[C@H](CC(C)C)NC(=O)[C@H](CCCNC(=N)N)NC(=O)[C@H](CCC(N)=O)NC(=O)[C@@H](NC(=O)[C@H](C)NC(=O)[C@@H]1CSSC[C@H](NC(=O)[C@@H](N)CCCCNC(=O)CC[C@H](NC(=O)CCCCCCCCCCCCCCCCCCC(=O)O)C(=O)O)C(=O)N[C@@H](CC(N)=O)C(=O)N[C@@H]([C@@H](C)O)C(=O)N[C@@H](C)C(=O)N[C@@H]([C@@H](C)O)C(=O)N1)[C@@H](C)O)C(=O)N1CCC[C@H]1C(=O)N[C@@H](CO)C(=O)N[C@@H](CO)C(=O)N[C@H](C(=O)N[C@@H](CC(N)=O)C(=O)N[C@H](C(=O)NCC(=O)N[C@@H](CO)C(=O)N[C@@H](CC(N)=O)C(=O)N[C@H](C(=O)N[C@@H](Cc1ccc(O)cc1)C(N)=O)[C@@H](C)O)C(C)C)[C@@H](C)O [Example 83] | 140000 | 2830 | 49.7 | 49.7 | 49.7 | ≥ 200 | ≥ 200 | ≥ 200 | ≥ 200 | ≥ 200 | ≥ 200 | ≥ 200 | ≥ 200 | 41.6 | 41.6 | 145.6 | 145.6 | 145.6 | 145.6 | 145.6 | Ratio hCT/hAmylin funct. [3, 17]: 41.6; Ratio hCT/hAmylin binding [4, 24]: 145.6; Ratio hCT/hAmylin binding [4, 25]: 145.6
